Test results: PubChem BioAssay AID248 (DTP/NCI, 2004)
Several values for one entry are separate records, joined by “and”; a condition that tells them apart may be missing. Identical values can stand only once. Toxic doses and inconclusive results are not listed. Rule as the data show it: active = T/C of 150% or more; inactive = T/C below 125%.

Test system: L1210 leukemia ip in BDF1 mice, survival T/C
Test: NCI In Vivo Anticancer Drug Screen. Data for tumor model L1210 Leukemia (intraperitoneal) in B6D2F1 (BDF1) mice
Settings: endpoint: mean survival time, higher = longer survival
Procedure: The antitumor activity of compounds was measured in mice bearing transplantable tumors. Survival or tumor size were measured and the results are expressed as the measurement made in the treated group (T) divided by the measurement made in the vehicle treated control group (C). The tumor model used in this assay is L1210 Leukemia (intraperitoneal) in B6D2F1 (BDF1) mice

[1] = dose: 100.0 mg/kg/injection, schedule: Q01DX009 (ip), vehicle: Klucel (hydroxypropylcellulose) (HPC)
[2] = dose: 200.0 mg/kg/injection, schedule: Q01DX009 (ip), vehicle: Klucel (hydroxypropylcellulose) (HPC)
[3] = dose: 400.0 mg/kg/injection, schedule: Q01DX009 (ip), vehicle: Klucel (hydroxypropylcellulose) (HPC)
[4] = dose: 50.0 mg/kg/injection, schedule: Q04DX003 (ip), vehicle: Klucel (hydroxypropylcellulose) (HPC)
[5] = dose: 100.0 mg/kg/injection, schedule: Q01DX001 (ip), vehicle: saline
[6] = dose: 100.0 mg/kg/injection, schedule: Q04DX003 (ip), vehicle: Klucel (hydroxypropylcellulose) (HPC)
[7] = dose: 200.0 mg/kg/injection, schedule: Q01DX001 (ip), vehicle: saline
[8] = dose: 200.0 mg/kg/injection, schedule: Q04DX003 (ip), vehicle: Klucel (hydroxypropylcellulose) (HPC)
[9] = dose: 400.0 mg/kg/injection, schedule: Q01DX001 (ip), vehicle: saline
[10] = dose: 400.0 mg/kg/injection, schedule: Q04DX003 (ip), vehicle: Klucel (hydroxypropylcellulose) (HPC)
[11] = dose: 100.0 mg/kg/injection, schedule: Q04DX002 (ip), vehicle: saline
[12] = dose: 12.5 mg/kg/injection, schedule: Q01DX009 (ip), vehicle: Klucel (hydroxypropylcellulose) (HPC)
[13] = dose: 50.0 mg/kg/injection, schedule: Q01DX009 (ip), vehicle: saline
[14] = dose: 100.0 mg/kg/injection, schedule: Q04DX003 (ip), vehicle: saline with Tween-80
[15] = dose: 200.0 mg/kg/injection, schedule: Q04DX003 (ip), vehicle: saline with Tween-80
[16] = dose: 400.0 mg/kg/injection, schedule: Q04DX003 (ip), vehicle: saline with Tween-80

Measured: T/C

CCCCC(/C=N\NC(=O)c1ccc[n+](C)c1)=C/c1ccccc1
inactive: dose: 100.0 mg/kg/injection, schedule: Q01DX001 (ip), vehicle: saline with Tween-80 96 % of control | dose: 200.0 mg/kg/injection, schedule: Q01DX001 (ip), vehicle: saline with Tween-80 102 % of control

O=C(Nc1ccc(F)c([N+](=O)[O-])c1)Nc1cccc2c(O)cccc12
inactive: [1] 101 % of control | [2] 103 % of control | [3] 97 % of control

CC(=O)OCCOC(=O)Nc1cccc2ccccc12
inactive: dose: 100.0 mg/kg/injection, schedule: Q04DX002 (ip), vehicle: Klucel (hydroxypropylcellulose) (HPC) 100 % of control | dose: 200.0 mg/kg/injection, schedule: Q04DX002 (ip), vehicle: Klucel (hydroxypropylcellulose) (HPC) 100 % of control | dose: 400.0 mg/kg/injection, schedule: Q04DX002 (ip), vehicle: Klucel (hydroxypropylcellulose) (HPC) 97 % of control

COC(=O)CCNc1ccccc1C(=O)OC
inactive: dose: 50.0 mg/kg/injection, schedule: Q01DX001 (ip), vehicle: carboxymethylcellulose (CMC) 100 % of control | dose: 100.0 mg/kg/injection, schedule: Q01DX001 (ip), vehicle: carboxymethylcellulose (CMC) 107 % of control | dose: 200.0 mg/kg/injection, schedule: Q01DX001 (ip), vehicle: carboxymethylcellulose (CMC) 113 % of control | dose: 400.0 mg/kg/injection, schedule: Q01DX001 (ip), vehicle: carboxymethylcellulose (CMC) 100 % of control

C=CCCCCCCCCCC
inactive: [4] 97 % of control | [5] 98 % of control | [6] 95 % of control | [7] 101 % of control | [8] 97 % of control | [9] 96 % of control

CCCNC(=O)c1ccc(N)cc1
inactive: [5] 104 % of control | [7] 97 % of control | [9] 97 % of control

CN(C)c1ncc(C(N)=O)cn1
inactive: [1] 97 % of control | [6] 100 % of control | [2] 108 % of control | [8] 96 % of control | [10] 110 % of control

O=[N+]([O-])c1ccc(CC(O)c2ccccc2Cl)cc1 (stereo unspecified)
inactive: [1] 102 % of control | [6] 101 % of control | [2] 102 % of control | [8] 101 % of control | [3] 97 % of control | [10] 97 % of control

CCOC(=O)C(=N\Nc1cccc(C)c1C)/C(C)=N\NC(N)=S
inactive: dose: 75.0 mg/kg/injection, schedule: Q01DX001 (ip), vehicle: saline 94 % of control | dose: 150.0 mg/kg/injection, schedule: Q01DX001 (ip), vehicle: saline 97 % of control | dose: 300.0 mg/kg/injection, schedule: Q01DX001 (ip), vehicle: saline 97 % of control

COc1ccc(NC(=O)Oc2ccc(-c3ccccc3)cc2Cl)c(OC)c1
inactive: [1] 97 % of control | [2] 101 % of control | [3] 92 % of control

O=C(O)c1c(F)ccc([N+](=O)[O-])c1F
inactive: [11] 108 % of control | dose: 200.0 mg/kg/injection, schedule: Q04DX002 (ip), vehicle: saline 103 % of control

CCOc1cccc(NNc2ccccc2OCC)c1
inactive: dose: 44.0 mg/kg/injection, schedule: Q01DX001 (ip), vehicle: other 106 % of control | dose: 66.0 mg/kg/injection, schedule: Q01DX001 (ip), vehicle: other 95 % of control | dose: 150.0 mg/kg/injection, schedule: Q01DX001 (ip), vehicle: other 92 % of control | dose: 200.0 mg/kg/injection, schedule: Q01DX001 (ip), vehicle: other 97 % of control | dose: 400.0 mg/kg/injection, schedule: Q01DX001 (ip), vehicle: other 97 % of control

CCO/C([O-])=C/[P+](c1ccccc1)(c1ccccc1)c1ccccc1
inactive: [12] 103 % of control | dose: 25.0 mg/kg/injection, schedule: Q01DX009 (ip), vehicle: Klucel (hydroxypropylcellulose) (HPC) 106 % of control | dose: 25.0 mg/kg/injection, schedule: Q04DX003 (ip), vehicle: Klucel (hydroxypropylcellulose) (HPC) 103 % of control | dose: 50.0 mg/kg/injection, schedule: Q01DX009 (ip), vehicle: Klucel (hydroxypropylcellulose) (HPC) 103 % of control | [4] 103 % of control | [6] 96 % of control

CCOC(=O)NC#N (tested in a mixture with another compound)
inactive: dose: 10.0 mg/kg/injection, schedule: Q01DX001 (ip), vehicle: saline 98 % of control | dose: 20.0 mg/kg/injection, schedule: Q01DX001 (ip), vehicle: saline 102 % of control | dose: 40.0 mg/kg/injection, schedule: Q01DX001 (ip), vehicle: saline 102 % of control

CCOC(=O)c1ccc(NC(=O)Oc2ccc3c(C)cc(=O)oc3c2)cc1
inactive: [1] 101 % of control | [2] 100 % of control | [3] 89 % of control

Cc1c(C)c(C)c(CN/N=C/c2ccncc2)c(C)c1C
inactive: [6] 98 % of control | [8] 109 % of control | [10] 101 % of control

CNCCCNCC1C(c2ccccc2)C1c1ccccc1 (stereo unspecified)
inactive: dose: 25.0 mg/kg/injection, schedule: Q04DX002 (ip), vehicle: saline 100 % of control and 90 % of control | dose: 50.0 mg/kg/injection, schedule: Q04DX002 (ip), vehicle: saline 103 % of control | [11] 86 % of control and 97 % of control

CCN(CC)CCCOC(=O)C(CCC(C)C)c1ccccc1C (stereo unspecified)
inactive: dose: 12.5 mg/kg/injection, schedule: Q01DX009 (ip), vehicle: saline 93 % of control | dose: 12.5 mg/kg/injection, schedule: Q04DX003 (ip), vehicle: saline 102 % of control | dose: 25.0 mg/kg/injection, schedule: Q01DX009 (ip), vehicle: saline 102 % of control | dose: 25.0 mg/kg/injection, schedule: Q04DX003 (ip), vehicle: saline 100 % of control | [13] 93 % of control | dose: 50.0 mg/kg/injection, schedule: Q04DX003 (ip), vehicle: saline 94 % of control

O=C(Nc1ccc(C(=O)c2ccccc2)cc1)c1ccccc1
inactive: [6] 104 % of control | [8] 108 % of control | [10] 98 % of control

Cc1c2ccncc2cc2c3ccccc3n(CCO)c12
inactive: dose: 9.38 mg/kg/injection, schedule: Q01DX009 (ip), vehicle: Klucel (hydroxypropylcellulose) (HPC) 105 % of control | dose: 18.75 mg/kg/injection, schedule: Q01DX009 (ip), vehicle: Klucel (hydroxypropylcellulose) (HPC) 107 % of control | dose: 18.75 mg/kg/injection, schedule: Q04DX003 (ip), vehicle: Klucel (hydroxypropylcellulose) (HPC) 97 % of control | dose: 37.5 mg/kg/injection, schedule: Q01DX009 (ip), vehicle: Klucel (hydroxypropylcellulose) (HPC) 107 % of control | dose: 37.5 mg/kg/injection, schedule: Q04DX003 (ip), vehicle: Klucel (hydroxypropylcellulose) (HPC) 107 % of control | dose: 75.0 mg/kg/injection, schedule: Q04DX003 (ip), vehicle: Klucel (hydroxypropylcellulose) (HPC) 105 % of control | [8] 98 % of control | [10] 104 % of control

CCOC(=O)C(CC(OCC)OCC)C(=O)OCC
inactive: dose: 100.0 mg/kg/injection, schedule: Q01DX009 (ip), vehicle: saline with Tween-80 95 % of control | [14] 101 % of control | dose: 200.0 mg/kg/injection, schedule: Q01DX009 (ip), vehicle: saline with Tween-80 96 % of control | [15] 108 % of control | dose: 400.0 mg/kg/injection, schedule: Q01DX009 (ip), vehicle: saline with Tween-80 96 % of control | [16] 100 % of control

CCOC(=O)c1cc2sccc2[nH]1
inactive: [14] 100 % of control | [15] 100 % of control | [16] 93 % of control

N#CC12C(=N)CCC1C1C=CC2C1 (stereo unspecified)
inactive: dose: 6.25 mg/kg/injection, schedule: Q01DX009 (ip), vehicle: Klucel (hydroxypropylcellulose) (HPC) 100 % of control | [12] 101 % of control | [6] 89 % of control | [8] 93 % of control

COC(=O)C([CH2][Sn]([c]1ccccc1)([c]1ccccc1)[c]1ccccc1)NC(=O)Cc1ccccc1 (stereo unspecified)
inactive: [13] 96 % of control | dose: 100.0 mg/kg/injection, schedule: Q01DX009 (ip), vehicle: saline 100 % of control | dose: 200.0 mg/kg/injection, schedule: Q01DX009 (ip), vehicle: saline 100 % of control
